From patent US9598424B2 (Takeda Pharmaceutical Company Limited, priority 2014, dated 2017) come the findings set out here.

Molecules are shown by their SMILES.

What is called ED50 is the dose that gives a 50% effect, or the effect in half of the subjects.

In one assay the target is T1, Full length human TBK1 (Homo sapiens, UniProt Q9UHD2).
T1 construct: Full length human TBK1 with an N-terminal His-tag; His-tag (N); made in house; host or cells: Sf9 insect cells (baculovirus, pFastBac1)
T1 sequence (Q9UHD2 1-729): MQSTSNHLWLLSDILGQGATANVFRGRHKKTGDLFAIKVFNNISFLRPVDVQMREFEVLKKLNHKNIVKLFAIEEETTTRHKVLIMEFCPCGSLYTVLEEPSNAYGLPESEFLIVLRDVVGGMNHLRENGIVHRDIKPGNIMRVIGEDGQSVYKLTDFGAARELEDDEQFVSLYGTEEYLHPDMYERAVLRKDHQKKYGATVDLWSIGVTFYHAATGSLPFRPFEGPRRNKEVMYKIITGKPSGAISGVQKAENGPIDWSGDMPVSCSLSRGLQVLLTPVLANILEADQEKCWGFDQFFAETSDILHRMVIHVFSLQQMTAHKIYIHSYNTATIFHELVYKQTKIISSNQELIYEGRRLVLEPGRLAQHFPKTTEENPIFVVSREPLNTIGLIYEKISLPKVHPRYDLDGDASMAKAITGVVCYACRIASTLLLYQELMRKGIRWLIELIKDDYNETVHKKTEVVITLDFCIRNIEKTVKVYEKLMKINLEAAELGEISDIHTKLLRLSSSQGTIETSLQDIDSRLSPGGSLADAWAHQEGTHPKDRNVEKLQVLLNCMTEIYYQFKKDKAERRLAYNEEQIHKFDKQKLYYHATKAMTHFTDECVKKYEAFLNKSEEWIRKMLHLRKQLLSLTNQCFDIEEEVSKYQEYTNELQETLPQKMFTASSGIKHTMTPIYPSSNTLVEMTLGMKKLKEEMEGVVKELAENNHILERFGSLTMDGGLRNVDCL
The assay is described as follows: Inhibition of TBK1 Enzyme (Caliper microfluidic assay). Type of assay: biochemical. Conditions: 25 μM ATP, 60 min at RT; -log(IC50), IC50 molar; read-out: TBK1 Inhibition (pIC50) (converted). The method, boiled down:
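Enzyme: His-tagged full-length TBK1 expressed in Sf9. Reaction 60 min at RT in 20 mM Hepes pH 7.4, 10 mM MgCl2, 1 mM EDTA, 0.01% Brij-L23, 1 mM DTT, with 5FAM-peptide (added at 1 μM) and TBK1/ATP mix (added at 3 nM/25 μM), then EDTA-quenched. Conversion measured by microfluidic separation; 11-point 2.5-fold series fit to pIC50.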

A further assay has as its target T2, TBK1 (Homo sapiens, UniProt Q9UHD2).
T2 construct: host or cells: RA1-ISRE beta-lactamase reporter cells
T2 sequence (Q9UHD2 1-729): T1 sequence (Q9UHD2 1-729)
The assay is described as follows: Inhibition of TBK1 in Cells (TLR3 driven ISRE β-lactamase reporter assay). Type of assay: cell-based. The conditions noted are these: poly IC-LMW stimulation 16 hrs; -log(EC50), EC50 molar; read-out: Inhibition of TBK1 in cells pEC50 (EC) (converted). The method, boiled down: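 RA1-ISRE β-lactamase reporter cells (50,000/well) treated with 11-point 2.5-fold compound dilutions and stimulated with 0.15 mg/ml poly IC-LMW for 16 hrs. Reporter read by CCF4-AM FRET; EC50 from non-linear fit of percent inhibition, reported as pEC50 (molar).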
A general note: Reporter assays use an easily measured gene product as a stand-in for the process of interest.

In the next assay the test system is C57/BL6 mice. The assay is described as follows: Inhibition of ConA Induced Hepatitis (plasma ALT). Conditions: Mus musculus; oral, 1 hr before ConA 15 mg/kg i.v.; plasma collected post 8-24 hrs; read-out: ED50 (amount reducing ConA induced increase in plasma ALT level by 50%). Type of assay: in vivo. The protocol:
Orally administer compound into normal C57/BL6 mice at several doses. After 1 hr, inject i.v. with ConA 15 mg/kg, (N=5). Post 8-24 hrs, collect plasma and liver. Measure plasma ALT enzyme level. An ED50 is determined as the amount of test compound that reduces ConA induced increase in plasma ALT level by 50%.

Take `O=C(NCC(F)F)c1nc(-c2ccc3nc(NC(=O)C4CC4)cn3c2)cs1` [Example 86, 4-(2-(cyclopropanecarboxamido)imidazo[1,2-a]pyridin-6-yl)-N-(2,2-difluoroethyl)thiazole-2-carboxamide]: the IC50 on Full length human TBK1 is 15.8 nM. The EC50 on TBK1 is 537 nM. Besides, the ED50 in the assay on C57/BL6 mice turned out to be 5 mg/kg.
